Experimental data taken from US7807138B2, “Biomarkers of metabolic responses to hepatic drugs” (Metabolon, Inc., priority 2006, dated 2010).
Marks after values point to notes of the source that are not given here.

Assays:
rats = assay: Liver enzymes ALT and AST in serum; assay type: in vivo, rat; settings: 50 or 250 mg/kg, any groups
Protocol: (§1) In detail, a single dose of clofibrate or vehicle was administered by gavage (0, 50 and 250 mg/kg) to groups of 18 male Sprague Dawley rats at 11 wks age. Six rats per dose group were euthanized at 6 and 24 h post-dose. Serum (for metabolomics and alanine aminotransferase (ALT), and aspartate aminotransferase (AST)), liver lobes (for histology), and frozen liver and urine (for metabolomics) were collected. Six rats per dose group were placed in metabolism cages for urine collection at −24-0 h, 0-6 h, 6-24 h and 24-48 h. These rats were removed from metabolism cages at 48 h post-dose, for blood and liver collection. The detailed study design is set forth in Chart 1.

rat liver [1] = assay: Liver histology; assay type: in vivo
Protocol: as §1, with “In detail, a single dose of clofibrate or vehicle was administered by gavage (0, 50 and 250 mg/kg) to groups of 18 male Sprague Dawley rats at 11 wks age.” left out

rat liver [2] = assay: LC-MS metabolomics of liver from rats dosed with clofibrate; assay type: in vivo; settings: LCMS
Protocol: In one embodiment, the hepatotoxicant is clofibrate. Clofibrate or vehicle is administered orally (0, 50, 250 mg/kg/d) to groups of 6 rats and serum and livers are collected 6 and 24 h after either a single or 14 daily doses. Global biochemical profiles are determined by LC-MS and GC-MS and components highly perturbed by clofibrate exposure are identified by the methods described above. […] Rats (6 per group) were dosed by gavage with vehicle, 50 or 250 mg/kg clofibrate per day for 1 (single dose) or 14 days (repeated dose). These groups are referred to as “day 1” and ‘day 14 (d 1 and d14).” Liver and serum were collected at 6 and 24 h post-dosing in the day 1 and day 14. In detail, a single dose of clofibrate or vehicle was administered by gavage (0, 50 and 250 mg/kg) to groups of 18 male Sprague Dawley rats at 11 wks age. Six rats per dose group were euthanized at 6 and 24 h post-dose. Serum (for metabolomics and alanine aminotransferase (ALT), and aspartate aminotransferase (AST)), liver lobes (for histology), and frozen liver and urine (for metabolomics) were collected. Six rats per dose group were placed in metabolism cages for urine collection at −24-0 h, 0-6 h, 6-24 h and 24-48 h. These rats were removed from metabolism cages at 48 h post-dose, for blood and liver collection. The detailed study design is set forth in Chart 1. Samples were extracted with 20% acetonitrile, then were evaporated and re-constituted in distilled water. For the liver, the left lobe was selected for metabolomic analysis. LC-MS was performed in positive and negative electrospray ionization modes on Bruker time of flight (TOF) instruments, using Icoria™ proprietary HPLC methods and picking and alignment programs. Samples were randomly placed in wells on 96-well plates, keeping d 1 and d 14 samples on separate plates. Between 54 and 72 samples plus quality control samples were run on each plate. Pre- and post-flight instrument checks were carried out. Thereafter, data integrity checks were performed to detect any errors related to our Laboratory Information Management System (LIMS) system, labeling of samples, and missing or extraneous information. […] Metabolites associated with LC-MS components were putatively identified using our proprietary database of mammalian metabolites as well as external sources of metabolic information.

rat liver [3] = settings: rats, cited from earlier work
rat liver [4] = assay: GC-MS metabolomics of liver from rats dosed with clofibrate; assay type: in vivo; settings: 250 mg/kg/d
Protocol: In one embodiment, the hepatotoxicant is clofibrate. Clofibrate or vehicle is administered orally (0, 50, 250 mg/kg/d) to groups of 6 rats and serum and livers are collected 6 and 24 h after either a single or 14 daily doses. Global biochemical profiles are determined by LC-MS and GC-MS and components highly perturbed by clofibrate exposure are identified by the methods described above. […] Rats (6 per group) were dosed by gavage with vehicle, 50 or 250 mg/kg clofibrate per day for 1 (single dose) or 14 days (repeated dose). These groups are referred to as “day 1” and ‘day 14 (d 1 and d14).” Liver and serum were collected at 6 and 24 h post-dosing in the day 1 and day 14. In detail, a single dose of clofibrate or vehicle was administered by gavage (0, 50 and 250 mg/kg) to groups of 18 male Sprague Dawley rats at 11 wks age. Six rats per dose group were euthanized at 6 and 24 h post-dose. Serum (for metabolomics and alanine aminotransferase (ALT), and aspartate aminotransferase (AST)), liver lobes (for histology), and frozen liver and urine (for metabolomics) were collected. Six rats per dose group were placed in metabolism cages for urine collection at −24-0 h, 0-6 h, 6-24 h and 24-48 h. These rats were removed from metabolism cages at 48 h post-dose, for blood and liver collection. The detailed study design is set forth in Chart 1. For GC-MS, liver was extracted with CHCl3:MeOH mixtures. Organic residue was derivitized with BSTFA and dried aqueous residues were derivitized with methoxyamine HCl/BSTFA. Samples were injected with 10:1 split into an Agilent 6890 gas chromatograph. A Leco Pegasus III TOFMS was used. Ions were generated at 70 eV with 3.2 mA ionization current; 25 spectra/s were recorded for 60-800 m/z. Acceleration voltage activated after 180 solvent delay. Detector voltage: 1750 V. Data were processed with Leco ChromaTOF software. Automatic peak detection and mass spectrum deconvolution were performed using 1.33 s peak width. Peaks with S/N less than 20 were rejected. Component identification was accomplished with the NIST 98' MS library and, in some cases, verified with standards. Components with similarity greater than 600 were used for analysis.

[5] = 50 mg/kg/d for 14 days, 6 H after administration
[6] = 50 mg/kg/d for 14 days, 24 H after administration
[7] = 250 mg/kg/d for 14 days, 6 H after administration
[8] = 250 mg/kg/d for 14 days, 24 H after administration

SMILES: CCOC(=O)C(C)(C)Oc1ccc(Cl)cc1 [Clofibrate, ethyl-p-chloro-phenoxyisobutyrate]
- ALT (rats): not elevated
- AST (rats): not elevated
- Histology: hepatocellular cytologic alterations (rat liver [1]; after 14 doses at 250 mg/kg/day, all time points): hepatocellular cytologic alterations (indicating loss of glycogen and eosinophilic granular cytoplasm) were noted at all time points
- Histology: hepatocellular mitotic figures (rat liver [1]; after a single dose, 50 to 250-mg/kg): dose related increase and severity of hepatocellular mitotic figures
- D-Glycerate fold change relative to control (rat liver [2]; [5]): 1.3 fold change
- Glycero-3-phosphoethanolamine fold change relative to control (rat liver [2]; [5]): −3.2 fold change
- Threonate fold change relative to control (rat liver [2]; [5]): 1.3 fold change
- Ornithine fold change relative to control (rat liver [2]; [6]): 1.84 fold change
- Threonate fold change relative to control (rat liver [2]; [6]): −1.4 fold change
- Various bile acids fold change relative to control (rat liver [2]; [6]): 1.3 fold change
- Creatine fold change relative to control (rat liver [2]; [7]): 1.4 fold change
- D-Glycerate fold change relative to control (rat liver [2]; [7]): 1.2 fold change
- Glutathione fold change relative to control (rat liver [2]; [7]): −1.5 fold change
- Glycero-3-phosphoethanolamine fold change relative to control (rat liver [2]; [7]): −7.7 fold change
- Hypotaurine fold change relative to control (rat liver [2]; [7]): 1.3 fold change
- Ornithine fold change relative to control (rat liver [2]; [7]): 2.3-5.4 fold change
- Serine fold change relative to control (rat liver [2]; [7]): 1.3-1.7 fold change
- Various bile acids fold change relative to control (rat liver [2]; [7]): 1.4 fold change
- Creatine fold change relative to control (rat liver [2]; [8]): 2.1 fold change
- Hypotaurine fold change relative to control (rat liver [2]; [8]): 1.3 fold change
- Ornithine fold change relative to control (rat liver [2]; [8]): 2.8-10.6 fold change
- Serine fold change relative to control (rat liver [2]; [8]): 1.7 fold change
- Microscopic changes to liver (rat liver [3]; 24 h after a single exposure): no microscopic changes to liver
- Liver histopathology (rat liver [3]; after 2 weeks): induced hypertrophy
- 1-Mono linoleoylglycerol fold change (rat liver [4]; DAY 1, 6 H): 1.11*** fold change
- 1-Mono oleoylglycerol fold change (rat liver [4]; DAY 1, 6 H): 0.98* fold change
- 1-Mono palmitoylglycerol fold change (rat liver [4]; DAY 1, 6 H): 0.91** fold change
- 2-Mono oleoylglycerol fold change (rat liver [4]; DAY 1, 6 H): 1.12*** fold change
- Cholesterol fold change (rat liver [4]; DAY 1, 6 H): 1.34*** fold change
- Glucose (aq) fold change (rat liver [4]; DAY 1, 6 H): 0.29* fold change
- Glycine fold change (rat liver [4]; DAY 1, 6 H): 2.69** fold change
- Lactic acid fold change (rat liver [4]; DAY 1, 6 H): 1.56** fold change
- Linoleic acid fold change (rat liver [4]; DAY 1, 6 H): 0.97* fold change
- Palmitate fold change (rat liver [4]; DAY 1, 6 H): 0.95*** fold change
- Stearate fold change (rat liver [4]; DAY 1, 6 H): 1.07* fold change
- 1-Mono stearoylglycerol fold change (rat liver [4]; DAY 1, 24 H): 17.14** fold change
- Glycerol 1(3)-phosphate fold change (rat liver [4]; DAY 1, 24 H): 2.56* fold change
- Glycine fold change (rat liver [4]; DAY 1, 24 H): 3.42* fold change
- L-Aspartic acid fold change (rat liver [4]; DAY 1, 24 H): 27.88*** fold change
- Lactic acid fold change (rat liver [4]; DAY 1, 24 H): 4.41* fold change
- Succinic acid (Butanedioic acid) fold change (rat liver [4]; DAY 1, 24 H): 17.05** fold change
- l-Alanine fold change (rat liver [4]; DAY 1, 24 H): 4.74* fold change
- 1-Mono palmitoylglycerol fold change (rat liver [4]; DAY 14, 6 H): 0.04** fold change
- 1-Mono stearoylglycerol fold change (rat liver [4]; DAY 14, 6 H): 0.22** fold change
- 2-Mono stearoylglycerol fold change (rat liver [4]; DAY 14, 6 H): 0.41* fold change
- Arachidonic acid fold change (rat liver [4]; DAY 14, 6 H): 0.22*** fold change
- Cholesterol fold change (rat liver [4]; DAY 14, 6 H): 1.87** fold change
- Malate fold change (rat liver [4]; DAY 14, 6 H): 0.1** fold change
- Palmitate fold change (rat liver [4]; DAY 14, 6 H): 0.72** fold change
- β-Sitosterol fold change (rat liver [4]; DAY 14, 6 H): 0.37** fold change
- Cholesterol fold change (rat liver [4]; DAY 14, 24 H): 0.69** fold change
- Docosahexaenoic acid fold change (rat liver [4]; DAY 14, 24 H): 0.58* fold change
- Glucose (aq) fold change (rat liver [4]; DAY 14, 24 H): 0.39** fold change
- Malate fold change (rat liver [4]; DAY 14, 24 H): 0.33** fold change
- β-Sitosterol fold change (rat liver [4]; DAY 14, 24 H): 0.46* fold change
- Clofibrate metabolite Propanoic acid, 2-(4-chlorophenoxy)-2-methyl- in liver (rat liver [4]; cell spans the time columns): (not present in control)
